Test results: paper PMC7925398, “Exploring the Therapeutic Potenital of the Leaderless Enterocins K1 and EJ97 in the Treatment of Vancomycin-Resistant Enterococcal Infection” (Frontiers in Microbiology, 2021)
In brackets after ≈: the same amount, converted by molar mass. Like-named read-outs stand apart in the source and are kept apart here. Where a SMILES comes first, the peptide text is derived from it. Where no end group is shown, it is not given here.

What was measured:
human erythrocytes = experiment: Haemolysis assay; conditions: for Visual haemolysis (redness of supernatant compared to saline): 1 mg/ml in saline; for Visual haemolysis (redness of supernatant compared to saline) / Haemolysis of erythrocytes: 37°C; for Haemolysis of erythrocytes: 0.01, 0.1 and 1 mg/ml in saline, washed human erythrocytes (two volunteers, pooled), 1 h, supernatant absorbance 540 nm, repeated three times
Protocol: To assess the haemolytic effect whole blood was drawn from two healthy human volunteers, pooled and distributed in 1 ml aliquots. The aliquots were spun down at 1,000 × g for 5 min at 4°C to separate erythrocytes from plasma. The erythrocytes were washed three times with saline (0.9% NaCl) and resuspended in 100 μl saline. […] SDS in saline was added as a control, since bacteriocins were solved in saline. The samples were incubated at 37°C for 1 h and then spun down again to remove intact erythrocytes. The supernatant was measured for absorbance at 540 nm in order to measure degree of haemolysis. […] The experiment was repeated three times to allow for statistical analysis.
Whole human blood was mixed with each bacteriocin in saline to a final concentration of 1, 0.1, and 0.01 mg/ml. The samples were incubated at 37°C before the erythrocytes were spun down and the supernatant was read at OD540.

[1] = test system: E. faecium LMGT 20705 and E. faecium 42 ACA-D6 0237; experiment: Effect of autoclaving on antibacterial activity, E. faecium; type: cell-based, Enterococcus faecium; conditions: in MilliQ water with 0.1% TFA, standard autoclaving; MIC against E. faecium LMGT 20705 and 42 ACA-D6 0237
Description: (§1) A pre-requisite for intravenous administration is complete sterility of the compound ([Paese et al., 2017]). The simplest manner to achieve this is through autoclaving. However, this can cause degradation of the compound and therefore be detrimental to the antibacterial effect. Also, if the compound is degraded into unknown constituents this may cause unintended interactions. Therefore, we exposed the bacteriocins to a standard autoclaving procedure.
(§2) Each bacteriocin was solved in MilliQ water with 0.1% TFA and then autoclaved. […] Strains: 20705 is short for E. faecium LMGT 20705; 0237 for E. faecium 42 ACA-D6 0237; D6 for E. faecalis D6; and MMH594 for E. faecalis MMH594.

[2] = Antibacterial effect (MIC) after incubation in blood, plasma or saline; type: cell-based; conditions: for MIC in blood: 1 mg/ml added to whole human blood (EDTA); for MIC in plasma after 8 h / MIC in plasma at 48 h: human plasma; for MIC in plasma after 8 h / MIC in saline after 8 h / MIC in blood after 8 h: 8 h incubation at 37°C; for MIC in plasma at 48 h / MIC in saline at 48 h / MIC in blood at 48 h: 48 h incubation at 37°C; for MIC in blood after 8 h / MIC in blood at 48 h: whole human blood (EDTA), 1 mg/ml; for MIC in blood compared to saline (fold higher): whole human blood vs saline
Protocol: To test whether the antibacterial effect of the bacteriocins was reduced in blood, an assay was performed where whole blood was collected from two healthy volunteers, with EDTA as an anticoagulant. Directly after blood sampling each bacteriocin was added to a concentration of 1mg/ml. […] Samples were collected at specific time points and bacteriocin activity was determined using the standard MIC assay as previously described ([Holo et al., 1991]). The experiment was repeated three times and the error bars represent the standard deviation.
The presented MIC values are the average of three experiments. Each bacteriocin was added to whole human blood to reach a concentration of 1 mg/ml. […] RT is short for room temperature.

E. faecium = conditions: three parallels
Protocol: (§3) Unless otherwise specified the bacterial strains were grown in brain heart infusion (BHI) medium (Oxoid) at 37°C under aerobic conditions without shaking.
(§4) The peptides were stored at −20°C until use. The amino acid sequences of the bacteriocins are […] RPVA and […] […] Bacteriocin activity was determined using a microtiter assay as previously described ([Holo et al., 1991]).

[3] = test system: bacteriocin-resistant enterococcal cells (eep-mutants); conditions: colonies from inhibition zones of spot-on-lawn assay; 'mostly above'; cross-resistant
Protocol: Bacteriocin resistant mutants were obtained by a spot-on-lawn assay, where liquid bacteriocin was spotted on a lawn of indicator cells, using 10μl of bacteriocin in concentrations 0.5–5 mg/ml. The plates were incubated at 30°C overnight and resistant colonies were selected from the inhibition zones and re-streaked on new plates for isolated colonies. Pure cultures were made and stored in 15% glycerol at −80°C. The eep gene was PCR amplified and sequenced with specific primers: eep in E. faecium was amplified using primers Eepf4F + Eepf4R and sequenced using primers Eepf1R - Eepf6R and Eepf1F - Eepf6F. eep in E. faecalis was amplified using primers Eepfa1R + Eepfa3F and sequenced using primers Eepfa1R - Eepfa3R, Eepf1R - Eepf3R and Eepfa1F - Eepfa3F.
The samples were sent to GATC Biotech, Germany for sequencing. MIC of the resistant mutants was scored using a microtiter assay as previously described ([Holo et al., 1991]).

[4] = test system: E. faecium wildtype and eep-mutant strains; experiment: Lysozyme tolerance MIC assay; type: cell-based, Enterococcus faecium
Protocol: To test for lysozyme tolerance the wild type and mutant strains were grown over night and subjected to a standard MIC assay as previously described with twofold dilutions of lysozyme ([Holo et al., 1991]). In addition, a spot-on-lawn assay was performed with 10 μl 250 mg/ml lysozyme spotted on a lawn of cells.

E. faecalis = conditions: MIC = at least 50% growth inhibition, three parallels
Protocol: as §3, §4

[5] = test system: E. faecalis D6 and E. faecalis MMH594; experiment: Effect of autoclaving on antibacterial activity, E. faecalis; type: cell-based, Enterococcus faecalis; conditions: in MilliQ water with 0.1% TFA, standard autoclaving; MIC against E. faecalis D6 and MMH594
Description: as §1, §2

[6] = starting value (time not given), average of three experiments

CCCCCCCCCCCCOS(=O)(=O)[O-].[Na+] [SDS, reference compound]
Visual haemolysis (redness of supernatant) (human erythrocytes): complete haemolysis

CC[C@H](C)[C@H](NC(=O)[C@H](CCC(=O)O)NC(=O)[C@H](Cc1ccc(O)cc1)NC(=O)[C@H](CCC(N)=O)NC(=O)[C@@H](NC(=O)[C@H](CC(C)C)NC(=O)[C@H](CCCCN)NC(=O)[C@H](CCCCN)NC(=O)[C@@H](NC(=O)[C@@H](NC(=O)[C@@H](NC(=O)CNC(=O)[C@@H](NC(=O)[C@@H]1CCCN1C(=O)[C@H](CC(N)=O)NC(=O)[C@H](Cc1ccccc1)NC(=O)[C@H](CCCCN)NC(=O)[C@H](Cc1ccccc1)NC(=O)[C@H](CCCCN)NC(=O)[C@@H](N)CCSC)[C@@H](C)O)[C@@H](C)O)[C@@H](C)CC)C(C)C)[C@@H](C)O)C(=O)N[C@@H](C)C(=O)N[C@@H](Cc1c[nH]c2ccccc12)C(=O)N[C@@H](Cc1ccccc1)C(=O)N[C@@H](CCCCN)C(=O)N[C@@H](CC(N)=O)C(=O)N[C@@H](CCCCN)C(=O)N[C@@H](Cc1c[nH]cn1)C(=O)NCC(=O)N[C@@H](Cc1ccc(O)cc1)C(=O)N[C@@H](Cc1ccc(O)cc1)C(=O)N1CCC[C@H]1C(=O)N[C@@H](Cc1c[nH]c2ccccc12)C(=O)N[C@@H](CCC(=O)O)C(=O)N[C@H](C(=O)N1CCC[C@H]1C(=O)N[C@@H](CCCNC(=N)N)C(=O)N[C@@H](CS)C(=O)O)[C@@H](C)CC [EntK1, enterocin K1] (H-MKFKFNPTGTIVKKLTQYEIAWFKNKHGYYPWEIPRC-OH; N-terminus and C-terminus assumed)
Effect of autoclaving on MIC [1]: did not affect
Visual haemolysis (redness of supernatant compared to saline) (human erythrocytes): did not cause haemolysis
Haemolysis of erythrocytes (human erythrocytes): non-haemolytic
MIC in blood [2, 6]: 0.78 µg/mL (≈ 0.171 µM)
MIC in saline ([2]; 1 mg/ml in saline, first value (time not given), indicator strain not stated, average of three experiments): 0.19 µg/mL (≈ 0.0416 µM)
MIC in plasma ([2]; added to human plasma, starting value (time not given), average of three experiments): 0.78 µg/mL (≈ 0.171 µM)
MIC in plasma after 8 h ([2]; average of three experiments): 0.78 µg/mL (≈ 0.171 µM)
MIC in plasma at 48 h ([2]; average of three experiments): 1.56 µg/mL (≈ 0.342 µM)
MIC in saline after 8 h ([2]; average of three experiments): stayed at the same level
MIC in saline at 48 h ([2]; average of three experiments): 0.39 µg/mL (≈ 0.0854 µM)
MIC ratio blood to plasma ([2]; same at all time points, 37°C): 2 ×
MIC ratio plasma to saline ([2]; same at all time points, 37°C): 2 ×
MIC in blood after 8 h ([2]; average of three experiments): approximately 1.56 μg/ml
MIC in blood at 48 h ([2]; average of three experiments): 3.125 µg/mL (≈ 0.685 µM)
MIC in blood compared to saline (fold higher) ([2]; 37°C): 4 ×
MIC of EntK1 (E. faecium; strain E1469 (N, nosocomial), MIC = at least 50% growth inhibition): 0.39 µg/mL
MIC of EntK1 (E. faecium; strain E3160 (N, nosocomial), MIC = at least 50% growth inhibition): 0.39 µg/mL
MIC of EntK1 (E. faecium; strain E3449 (N, nosocomial), MIC = at least 50% growth inhibition): 0.39 µg/mL
MIC of EntK1 (E. faecium; strain E6072 (N, nosocomial), MIC = at least 50% growth inhibition): 0.19 µg/mL
MIC of EntK1 (E. faecium; strain E6094 (N, nosocomial), MIC = at least 50% growth inhibition): 0.39 µg/mL
MIC of EntK1 (E. faecium; strain E6856 (N, nosocomial), MIC = at least 50% growth inhibition): 0.39 µg/mL
MIC of EntK1 (E. faecium; strain E7195 (N, nosocomial), MIC = at least 50% growth inhibition): 0.39 µg/mL
MIC of EntK1 (E. faecium; strain E7422 (N, nosocomial), MIC = at least 50% growth inhibition): 0.19 µg/mL
MIC of EntK1 (E. faecium; strain E7660 (N, nosocomial), MIC = at least 50% growth inhibition): 0.39 µg/mL
MIC of EntK1 (E. faecium; strain E8150 (N, nosocomial), MIC = at least 50% growth inhibition): 0.78 µg/mL
MIC of EntK1 (E. faecium; strain LMGT 20705 (L, laboratory), MIC = at least 50% growth inhibition): <0.048 µg/mL
MIC of EntK1 (E. faecium; strain P21 (L, laboratory), MIC = minimum concentration inhibiting growth by at least 50% vs control, 200 μl culture): <0.048 µg/mL
MIC against cells from resistant colonies [3]: above 25 μg/ml

Lysozyme
Lysozyme MIC ([4]; E. faecium 7422c.522del (M, eep-mutant)): 1.95 mg/mL
Lysozyme MIC ([4]; E. faecium 7422c.C64A (M, eep-mutant)): 1.95 mg/mL
Lysozyme MIC ([4]; E. faecium E7422 (WT)): 15.63 mg/mL
Lysozyme MIC ([4]; E. faecium P21 (WT), twofold dilutions of lysozyme): 15.63 mg/mL
Lysozyme MIC ([4]; E. faecium P21c.G716A (M, eep-mutant)): 0.98 mg/mL
Lysozyme MIC ([4]; E. faecium P21c.ins7 (M, eep-mutant)): 0.98 mg/mL
Lysozyme MIC ([4]; E. faecium P21c.ins23 (M, eep-mutant)): 0.98 mg/mL
Lysozyme MIC ([4]; E. faecium P21c.ins43 (M, eep-mutant)): 0.98 mg/mL
Lysozyme MIC, wildtype strains ([4]; wildtype strains P21 and E7422): 15.63 mg/mL

CC1(C)S[C@@H]2[C@H](NC(=O)[C@H](N)c3ccccc3)C(=O)N2[C@H]1C(=O)O [Ampicillin, reference compound]
MIC in blood [2, 6]: 1.56 µg/mL (≈ 4.46 µM)
Loss of activity after 48 h incubation ([2]; 48 h incubation at 37°C in blood and similar conditions): fourfold

MLAKIKAMIKKFPNPYTLAAKLTTYEINWYKQQYGRYPWERPVA [EntEJ97, enterocin EJ97]
Visual haemolysis (redness of supernatant compared to saline) (human erythrocytes): did not cause haemolysis
Haemolysis of erythrocytes (human erythrocytes): non-haemolytic
MIC in plasma after 8 h ([2]; average of three experiments): 0.78 µg/mL
MIC in plasma at 48 h ([2]; average of three experiments): 1.56 µg/mL
MIC in saline after 8 h ([2]; average of three experiments): 0.39 µg/mL
MIC in saline at 48 h ([2]; average of three experiments): 0.78 µg/mL
MIC in blood after 8 h ([2]; average of three experiments): 1.56 µg/mL
MIC in blood at 48 h ([2]; average of three experiments): 3.125 µg/mL
MIC in blood compared to saline (fold higher) ([2]; 37°C): 2 ×
MIC of EntEJ97 (E. faecalis; strain 62 (L, laboratory)): 1.56 µg/mL
MIC of EntEJ97 (E. faecalis; strain D6 (L, laboratory)): 0.39 µg/mL
MIC of EntEJ97 (E. faecalis; strain HH22 (N, nosocomial)): 1.56 µg/mL
MIC of EntEJ97 (E. faecalis; strain MMH594 (N, nosocomial)): 0.39 µg/mL
MIC of EntEJ97 (E. faecalis; strain Merz96 (N, nosocomial)): 0.78 µg/mL
MIC of EntEJ97 (E. faecalis; strain OG1RF (L, laboratory)): 0.78 µg/mL
MIC of EntEJ97 (E. faecalis; strain Symbioflor (B, probiotic)): 0.39 µg/mL
MIC of EntEJ97 (E. faecalis; strain T3 (N, nosocomial)): 0.39 µg/mL
MIC of EntEJ97 (E. faecalis; strain TX0104 (N, nosocomial)): 0.39 µg/mL
MIC of EntEJ97 (E. faecalis; strain V583 (N, nosocomial; carries EntEJ97 immunity gene)): >25 µg/mL
MIC against cells from resistant colonies [3]: above 25 μg/ml
Effect of autoclaving on MIC [5]: did not affect
